Measured values taken from patent publication US9308239B2, “Methods and compositions for treatment of retinoid-responsive conditions” (The Penn State Research Foundation, priority 2008, dated 2016).
Values joined by “and” are separate entries in the source; they are usually repeats but may differ in a detail not shown here. Identical values can stand only once.

How the values were obtained:
NGAL [1] = assay: Western blot of NGAL protein in SEB-1 sebocytes after retinoid treatment; format: cell-based, human; details: 72 hours, 0.1 nM to 1 μM, maximum with micromolar concentrations
Description: For Western blotting, mouse monoclonal antibody to lipocalin 2 (NGAL) was obtained from Abeam, Inc., (Cambridge, Mass.). The 24p3R(NGAL receptor) affinity purified antibody, positive (HEK 293 cell lysate) and negative (T47D cell lysate) controls were kindly provided by Dr. Michael Green (University of Massachusetts Medical School). GAPDH (#2118), Cleaved caspase 3 (#9664), β-actin (#4967) and anti-rabbit horseradish peroxidase (HRP) linked secondary antibodies (#7074) were purchased from Cell Signaling Technology (Beverly, Mass.). Secondary Anti-mouse HRP antibody was purchased from Santa Cruz Biotechnology Inc. (Santa Cruz, Calif.).
SEB-1 sebocytes (passages 22-28) were in standard culture medium until 50-75% confluent. Treatments of 13-cis RA (0.1 nM, 1 nM, 10 nM, 0.1 μM, or 1 μM) or ethanol vehicle (0.01% or less) were applied for 48 or 72 hours. In parallel studies, identical concentrations of all-trans retinoic acid (ATRA) were applied for 72 hours. In all experiments, each plate was considered an independent sample and total protein was collected. Blots were incubated with appropriate primary and secondary antibodies followed by densitometry. […] Data was analyzed using a paired t-test and results were considered significant if p<0.05.
Protein expression was verified by western blot at 72 hours of retinoid treatment. […] Blots were analyzed by densitometry and normalized to β-actin. […]

LCN2 mRNA = assay: QPCR of LCN2 mRNA in SEB-1 sebocytes after retinoid treatment; format: cell-based, human; details: 48 hours
Description: Applied Biosystems' Assays-on-Demand Taqman Universal PCR Master Mix, primer/probe sets, and ABI's 7900HT Fast Real-Time PCR System with 384-well plate block module were used according to manufacturer's instructions (Applied Biosystems, Foster City, Calif.). Integrity of isolated RNA was verified by agarose gel electrophoresis. cDNA was generated from 1 μg of total RNA, primed with oligo-dT, using the Superscript First-Strand Synthesis System for RT-PCR (Invitrogen, Carlsbad, Calif.). Diluted cDNA from the one week samples were run for the reference gene TATA binding protein (TBP) and genes of interest: lipocalin 2, (LCN2) RARRES1, S100A7, SERPINA3 and PLA2G7. For gene array verification, 8 independent samples of SEB-1 sebocytes treated with 0.1 μM 13-cis RA or vehicle alone for 72 hours were analyzed. Genes of interest included: LCN2, RARRES1, insulin-like growth factor binding protein 3 (IGFBP-3), GATA3, ZBTB16 and potential LCN2 cell surface receptor (SLC22A17). Expression of TBP, GAPDH and LCN2 was analyzed in 6 independent SEB-1 samples for the siRNA knockdown experiments. SEB-1 sebocytes treated with increasing concentrations of ATRA (n=5) were analyzed for the reference gene, TBP, and LCN2. […] Data was analyzed using the Relative Expression Software Tool (REST-XL version 1) software program (64) with efficiency correction and a p-value <0.05 was considered significant. […]

sebaceous glands [2] = assay: TUNEL-peroxidase assay on patient skin biopsies; format: in vivo, human
sebaceous glands [3] = assay: Histology: sebaceous gland area in patient skin biopsies (H&E, image analysis); format: in vivo, human; details: one week samples, mean±SEM; baseline 0.23±0.09; not significant (p=0.16)
NGAL [4] = assay: NGAL immunohistochemistry on patient skin sections; format: in vivo, human; details: individual patients 1-6 and average, after one week isotretinoin therapy
Description: All sections were counterstained with hematoxylin. […] NC-negative control, consists of a normal human skin incubated with normal mouse IgG1 antibody.

NGAL [5] = assay: Immunoblot for NGAL in SEB-1 sebocytes after poly (I:C); format: cell-based, human; details: SEB-1, 20 μg/mL, 48 hrs
P. acnes bacteria = assay: P. acnes percent survival after rhNGAL treatment; details: 1-25 μg/mL, 4 hours, percent survival relative to vehicle
SEB-1 sebocytes = assay: TUNEL assay in SEB-1 sebocytes; format: cell-based, human; details: 24 hours, 1 ng/mL

## CC1=C(/C=C/C(C)=C/C=C/C(C)=C/C(=O)O)C(C)(C)CCC1 [ATRA, all-trans retinoic acid]
NGAL [1]
  NGAL protein expression increase compared to control (maximum): 7 fold

## CC1=C(/C=C/C(C)=C/C=C/C(C)=C\C(=O)O)C(C)(C)CCC1 [isotretinoin, 13-cis retinoic acid]
LCN2 mRNA
  concentrations that significantly increased LCN2 mRNA levels: ≥ 1 nM
LCN2 mRNA; micromolar concentrations
  increase of LCN2 mRNA levels compared to control: approximately 6 fold
Sebaceous glands [2]; one week of therapy compared to baseline
  increase in the percentage of TUNEL positive cells vs baseline: 4 fold
Sebaceous glands [2]; one week of therapy, mean±SD, n=6 patients, baseline 13.9±6%, p=0.005
  percentage of TUNEL positive cells within the sebaceous gland: 45.9±11.9%
Sebaceous glands [3]
  mean area of sebaceous glands: 0.12±0.02 mm^2
NGAL [4]
  1-week (% of sebaceous gland positive for NGAL): 27.1% and 1.1% and 12.1% and 1.0% and 36.7% and 11.3%

## Polyinosinic:polycytidylic acid [Poly (I:C)]
NGAL [5]
  NGAL expression in total cell lysate: increases

B1: rhNGAL: purified recombinant human NGAL protein (amino acids 21-198, R&D Systems); in Example 14 rhNGAL produced in E. coli (protein)
chain: QDSTSDLIPAPPLSKVPLQQNFQDNQFQGKWYVVGLAGNAILREDKDPQKMYATIYELKEDKSYNVTSVLFRKKKCDYWIRTFVPGCQPGEFTLGNIKSYPGLTSYLVRVVSTNYNQHAMVFFKKVSQNREYFKITLYGRTKELTSELKENFIRFSKSLGLPENHIVFPVPIDQCIDG
modifications: human
P. acnes bacteria
  effect on P. acnes bacteria (FIG. 11): inhibitory effects
SEB-1 sebocytes
  percentage of TUNEL positive cells (maximum): approximately 35%
